≈ marks a conversion by molar mass, not a printed value. Where two headings read alike, the source gives them in different places.
What was measured:
Experiment in all cases: Broth microdilution MIC, European bacteraemia isolates 2010-2012
[1] = test system: E. faecium; type: cell-based, Enterococcus faecium; conditions: for % Resistant, CLSI / % Susceptible, CLSI: CLSI M100-S23 breakpoints; for % Resistant, EUCAST / % Susceptible, EUCAST: EUCAST 2013 breakpoints; for MIC90 / MIC50: Enterococcus faecium; for MIC90 / MIC50 / MIC 50% / MIC Range / MIC 90%: Table 2; for MIC90: read-out: MIC 90%; for MIC50: read-out: MIC 50%
Method: (§1) A total of 2,904 clinical strains responsible for documented bacteremia among unique hospitalized patients in 38 hospitals in 11 European Union countries. Israel, Russia, Turkey and Ukraine were included in this study (2010-2012). Isolates were submitted to a central monitoring laboratory (JMI Laboratories, North Liberty. Iowa. USA), following previously established protocols. Bacterial species identification was performed by using an automated system (Vitek®2; bioMèrieux, Hazelwood, Mo., USA) or conventional biochemical algorithms, as required.
(§2) Isolates were tested for susceptibility by broth microdilution methods following the Clinical and Laboratory Standards Institute (CLSI; M07-A9, 2012) document. Susceptibility testing was performed in cation-adjusted Mueller-Hinton broth (CA-MHB) using dry-form panels manufactured by Thermo Fisher Scientific, formerly TREK Diagnostics Systems/Sensititre (Cleveland. Ohio, USA). These panels provide results equivalent to the CLSI-approved broth microdilution method supplemented with 0.002% polysorbate-80.
(§3) Quality assurance was performed by concurrent testing of CLSI-recommended (M100-S23, 2013) strains: E. faecalis ATCC 29212 and S. aureus ATCC 29213. Interpretation of comparator MIC results was in accordance with published CLSI (M100-S23) and European Committee on Antimicrobial Susceptibility Testing (EUCAST, 2013) criteria.

[2] = test system: E. faecalis; type: cell-based, Enterococcus faecalis; conditions: for % Resistant, CLSI / % Susceptible, CLSI: CLSI M100-S23 breakpoints; for % Resistant, EUCAST / % Susceptible, EUCAST: EUCAST 2013 breakpoints; for % susceptible: E. faecalis strains, criteria not stated; for MIC50 / MIC90: Enterococcus faecalis; for MIC50: read-out: MIC 50%; for MIC90: read-out: MIC 90%
Method: as §1, §2, §3

[3] = test system: Coagulase-negative staphylococci; type: cell-based, coagulase-negative staphylococci (CoNS); conditions: Coagulase-negative staphylococci (646); for MIC50: read-out: MIC 50%; for MIC90: read-out: MIC 90%
Method: as §1, §2, §3

[4] = test system: S. aureus; type: cell-based; conditions: S. aureus Methicillin-resistant (1,708); for % Resistant, CLSI / % Susceptible, CLSI: CLSI M100-S23 breakpoints; for % Resistant, EUCAST / % Susceptible, EUCAST: EUCAST 2013 breakpoints; for MIC50 / MIC90: Staphylococcus aureus; for MIC50: read-out: MIC 50%; for MIC90: read-out: MIC 90%
Method: as §1, §2, §3

[5] = E. faecium Vancomycin-resistant (VanA-phenotype) (153)
[6] = E. faecium Vancomycin-susceptible (257)

## CC1(C)S[C@@H]2[C@H](NC(=O)[C@H](N)c3ccccc3)C(=O)N2[C@H]1C(=O)O [Ampicillin]
[1]; [5]
  % Resistant, CLSI: 100.0%
  % Susceptible, CLSI: 0.0%
  % Resistant, EUCAST: 100.0%
  % Susceptible, EUCAST: 0.0%
  MIC90: > 8 µg/mL
  MIC 50%: >8 µg/mL
  MIC Range: >8 µg/mL
[1]; [6]
  % Resistant, CLSI: 94.2%
  % Susceptible, CLSI: 5.8%
  % Resistant, EUCAST: 94.2%
  % Susceptible, EUCAST: 5.4%
  MIC50: > 8 µg/mL
  MIC90: > 8 µg/mL
[2]; E. faecalis (445)
  % Resistant, CLSI: 0.0%
  % Susceptible, CLSI: 100.0%
  % Resistant, EUCAST: 0.0%
  % Susceptible, EUCAST: 99.6%
[2]
  % susceptible: 99.6%
[2]; Table 2, E. faecalis (445)
  MIC50: ≤ 1 µg/mL
  MIC90: 2 µg/mL (≈ 5.72 µM)
  MIC 50%: ≦1 mg/L
[2]; Table 2, E. faecalis (445), includes four VanA-phenotype strains
  MIC Range: ≦1-8 mg/L

## CCC[C@@H]1C[C@@H](C(=O)N[C@@H]([C@H]2O[C@H](SC)[C@H](O)[C@@H](O)[C@H]2O)[C@H](C)Cl)N(C)C1 [Clindamycin]
[3]; CLSI M100-S23 breakpoints
  % Resistant, CLSI: 26.0%
[3]; Table 2
  MIC50: ≤ 0.25 µg/mL
  MIC90: > 2 µg/mL
[4]
  % Resistant, CLSI: 40.3%
  % Susceptible, CLSI: 59.1%
  % Resistant, EUCAST: 40.9%
  % Susceptible, EUCAST: 58.9%
[4]; Table 2
  MIC50: ≤ 0.25 µg/mL
  MIC90: > 2 µg/mL

## CC[C@H]1OC(=O)[C@H](C)[C@@H](O[C@H]2C[C@@](C)(OC)[C@@H](O)[C@H](C)O2)[C@H](C)[C@@H](O[C@@H]2O[C@H](C)C[C@H](N(C)C)[C@H]2O)[C@](C)(O)C[C@@H](C)C(=O)[C@H](C)[C@@H](O)[C@]1(C)O [Erythromycin]
[1]; [5]
  % Resistant, CLSI: 98.1%
  % Susceptible, CLSI: 0.0%
  MIC90: > 4 µg/mL
  MIC 50%: >4 µg/mL
[1]; [6]
  % Resistant, CLSI: 91.4%
  % Susceptible, CLSI: 3.5%
  MIC50: > 4 µg/mL
  MIC90: > 4 µg/mL
[3]; CLSI M100-S23 breakpoints
  % Resistant, CLSI: 65.1%
[3]; Table 2
  MIC50: > 4 µg/mL
  MIC90: > 4 µg/mL
[2]; E. faecalis (445)
  % Resistant, CLSI: 54.8%
  % Susceptible, CLSI: 8.1%
[2]; Table 2, E. faecalis (445)
  MIC50: > 4 µg/mL
  MIC90: > 4 µg/mL
[4]
  % Resistant, CLSI: 68.0%
  % Susceptible, CLSI: 29.6%
  % Resistant, EUCAST: 69.1%
  % Susceptible, EUCAST: 29.8%
[4]; Table 2
  MIC50: > 4 µg/mL
  MIC90: > 4 µg/mL

## C[C@H]1COc2c(N3CCN(C)CC3)c(F)cc3c(=O)c(C(=O)O)cn1c23 [Levofloxacin]
[1]; [5]
  % Resistant, CLSI: 100.0%
  % Susceptible, CLSI: 0.0%
  MIC90: > 4 µg/mL
  MIC 50%: >4 µg/mL
  MIC Range: >4 µg/mL
[1]; [6]
  % Resistant, CLSI: 89.1%
  % Susceptible, CLSI: 5.8%
  MIC50: > 4 µg/mL
  MIC90: > 4 µg/mL
[3]; CLSI M100-S23 breakpoints
  % Resistant, CLSI: 56.2%
[3]; Table 2
  MIC50: 4 µg/mL (≈ 11.1 µM)
  MIC90: > 4 µg/mL
[2]; E. faecalis (445)
  % Resistant, CLSI: 35.3%
  % Susceptible, CLSI: 64.3%
[2]; Table 2, E. faecalis (445)
  MIC50: 1 µg/mL (≈ 2.77 µM)
  MIC90: > 4 µg/mL
[4]
  % Resistant, CLSI: 90.3%
  % Susceptible, CLSI: 8.6%
  % Resistant, EUCAST: 90.3%
  % Susceptible, EUCAST: 8.6%
[4]; Table 2
  MIC50: > 4 µg/mL
  MIC90: > 4 µg/mL

## Cc1onc(-c2ccccc2)c1C(=O)N[C@@H]1C(=O)N2[C@@H]1SC(C)(C)[C@@H]2C(=O)O [Oxacillin]
[3]; CLSI M100-S23 breakpoints
  % Resistant, CLSI: 78.8%
[3]; Table 2
  MIC50: > 2 µg/mL
  MIC90: > 2 µg/mL

## CN(C)[C@@H]1C(O)=C(C(N)=O)C(=O)[C@@]2(O)C(O)=C3C(=O)c4c(O)cccc4[C@@](C)(O)[C@H]3C[C@@H]12 [Tetracycline]
[1]; [5]
  % Resistant, CLSI: 41.5%
  % Susceptible, CLSI: 58.5%
  MIC90: > 8 µg/mL
  MIC 50%: 0.5 µg/mL (≈ 1.13 µM)
[1]; [6]
  % Resistant, CLSI: 43.2%
  % Susceptible, CLSI: 56.0%
  MIC50: 0.5 µg/mL (≈ 1.13 µM)
  MIC90: > 8 µg/mL
[3]; CLSI M100-S23 breakpoints
  % Resistant, CLSI: 15.2%
[3]; Table 2
  MIC50: 1 µg/mL (≈ 2.25 µM)
  MIC90: > 8 µg/mL
[2]; E. faecalis (445)
  % Resistant, CLSI: 73.5%
  % Susceptible, CLSI: 26.5%
[2]; Table 2, E. faecalis (445)
  MIC50: > 8 µg/mL
  MIC90: > 8 µg/mL
[4]
  % Resistant, CLSI: 14.2%
  % Susceptible, CLSI: 84.9%
  % Resistant, EUCAST: 15.1%
  % Susceptible, EUCAST: 84.4%
[4]; Table 2
  MIC50: ≤ 0.25 µg/mL
  MIC90: > 8 µg/mL

## Teicoplanin
[1]; [5]
  % Resistant, CLSI: 96.2%
  % Susceptible, CLSI: 0.0%
  % Resistant, EUCAST: 100.0%
  % Susceptible, EUCAST: 0.0%
  MIC 50%: >8 µg/mL
  MIC 90%: >8 µg/mL
  MIC Range: >8 µg/mL
[1]; [6]
  % Resistant, CLSI: 0.0%
  % Susceptible, CLSI: 100.0%
  % Resistant, EUCAST: 0.4%
  % Susceptible, EUCAST: 99.6%
  MIC 50%: ≦2 mg/L
  MIC 90%: ≦2 mg/L
  MIC Range: ≦2-4 mg/L
[3]; CLSI M100-S23 breakpoints
  % Resistant, CLSI: 0.8%
  % Susceptible, CLSI: 97.7%
[3]; EUCAST 2013 breakpoints
  % Resistant, EUCAST: 11.1%
  % Susceptible, EUCAST: 88.9%
[3]; Table 2
  MIC 50%: ≦2 mg/L
  MIC 90%: 8 µg/mL
[2]; E. faecalis (445)
  % Resistant, CLSI: 0.9%
  % Susceptible, CLSI: 99.1%
  % Resistant, EUCAST: 0.9%
  % Susceptible, EUCAST: 99.1%
[2]
  % susceptible: 99.1%
[2]; Table 2, E. faecalis (445)
  MIC 50%: ≦2 mg/L
  MIC 90%: ≦2 mg/L
[4]
  % Resistant, CLSI: 0.0%
  % Susceptible, CLSI: 100.0%
  % Resistant, EUCAST: 0.0%
  % Susceptible, EUCAST: 100.0%
[4]; Table 2
  MIC 50%: ≦2 mg/L
  MIC 90%: ≦2 mg/L
  MIC Range: ≦2 mg/L

From patent US20160206688A1, “METHODS FOR TREATING BACTEREMIA AND OSTEOMYELITIS USING ORITAVANCIN” (THE MEDICINES COMPANY, priority 2013, published 2016)
